Measurements from US20250120932A1, “PHARMACEUTICAL COMPOSITION” (NEUROPRO THERAPEUTICS, INC., priority 2021, published 2025).

Assay: in vitro
Settings: human, Caco-2, pH 7.4, % Solution Recovery
Description: Caco-2 cells purchased from ATCC were seeded onto […] (PET) in 96-well Corning Insert plates at 1×10^5 cells/cm^2, and refreshed medium every 4˜5 days until to the 21st to 28th day for confluent cell monolayer formation.
The transport buffer in the study was HBSS with 10.0 mM HEPES at pH 7.40±0.05. Test compound was tested at 2.00 μM bi-directionally in duplicate. Digoxin was tested at 10.0 μM bi-directionally in duplicate, while nadolol and metoprolol were tested at 2.00 μM in A to B direction in duplicate. Final DMSO concentration was adjusted to less than 1%. The plate was incubated for 2 hours in CO2 incubator at 37±1° C., with 5% CO2 at saturated humidity without shaking. And all samples after mixed with acetonitrile containing internal standard were centrifuged at 3200×g for 10 min. For nadolol and metoprolol, 200 μL supernatant solution was diluted with 600 μL ultra-pure water for LC-MS/MS analysis. For digoxin and test compounds, 200 μL supernatant solution was diluted with 200 μL ultra-pure water for LC-MS/MS analysis. Concentrations of test and control compounds in starting solution, donor solution, and receiver solution were quantified by LC-MS/MS methodologies, using peak area ratio of analyte/internal standard. After transport assay, lucifer yellow rejection assay was applied to determine the Caco-2 cell monolayer integrity.
The apparent permeability coefficient Papp (cm/s) was calculated using the equation: […]
Where dCp/dt is the cumulative concentration of compound in the receiver chamber as a function of time (μM/s); Vr is the solution volume in the receiver chamber (0.075 mL on the apical side, 0.25 mL on the basolateral side); A is the surface area for the transport, i.e. 0.0804 cm^2 for the area of the monolayer; Co is the initial concentration in the donor chamber (μM). The efflux ratio was calculated using the equation: […]
Percent recovery was calculated using the equation: […]
Where Vd is the volume in the donor chambers (0.075 mL on the apical side, 0.25 mL on the basolateral side); Ca and Cr are the final concentrations of transport compound in donor and receiver chambers, respectively.

CCCCNc1cc(C(=O)N(Cc2ccccc2)Cc2ccccc2)cc(S(N)(=O)=O)c1Oc1ccccc1 [Bumetanide Dibenzylamide, N, N-dibenzyl 3-aminosulfonyl-5-butylamino-4-phenoxybenzamide]
recovery at 2 h, 2 μM: < 50%
